Read-outs that look alike come from different tables or passages of the source.
Columns and labels:
[1] = Cell viability assay (alamar Blue and CyQuant staining); type: cell-based
Description: (§1) Aß Measurement and Cell Viability Assay. Aß was measured using an Aß 1-42 human fluorimetric ELISA kit (Invitrogen) according to the manufacturer's instructions. Results were measured in a Biotek Synergy HT microplate reader. AlamarBlue and CyQuant NF (Invitrogen) according to the manufacturer's instructions.

TACE = TACE assay in cell homogenates of neuronal cells; type: cell-based; conditions: human SH-SY5Y, N2a mouse neuroblastoma cells, primary neurons from rat hippocampus
Description: TACE Assay. TACE was measured by incubating 5 μl cell homogenate, 3 μl buffer (50 mM Tris-HCl 7.4 plus 25 mM NaCl plus 4% glycerol), and 1 μl of 100 μM TACE substrate IV (Aβz-LAQAVRSSSR-DPa) (Calbiochem) for 20 min at 37° in 1.5-ml polypropylene centrifuge tubes (Jin et al., Anal. Biochem. 2002; 302: 269-75). The reaction was stopped by cooling to 4° C. The samples were diluted to 1 ml and the fluorescence was rapidly measured (ex=320 nm, em=420 nm) in a Spex Fluorolog 2 spectrofluorometer.
Buxbaum et al., J. Biol. Chem. 1998; 273: 27765-67; Etcheberrigaray et al., Proc. Natl. Acad. Sci. USA. 2006: 103:8215-20. However, many of these earlier studies were carried out in fibroblasts and other non-neuronal cell types, which appear to respond differently to PKC activators than neurons.

Aß [2] = test: Aß production in N2a neuroblastoma cells transfected with human APPSwe/PS1D (Aß 1-42 ELISA); type: cell-based, mouse; conditions: for levels of both intracellular and secreted Aß: 24 h incubation, various concentrations
Description: as §1
To measure the effects of PKC activation on Aß production, we used mouse neuro2a (N2a) neuroblastoma cells transfected with human APPSwe/PS1D, which produce large quantities of Aβ. Petanceska et al., J. Neurochem. 1996; 74: 1878-84. […] With bryostatin, which activates PKC by binding to the diacylglycerol-binding site, the inhibition was biphasic, with concentrations of 20 nM or higher producing no net effect. This may be explained by the ability of this class of PKC activators to downregulate PKC when used at high concentrations.

purified PKC = target: T1, purified PKC (Homo sapiens, UniProt Q02156); test: PKC isozyme specificity: purified PKC preincubated with compound, activity measured radiometrically; type: biochemical
T1 construct: purchased Calbiochem
T1 sequence (Q02156 1-737): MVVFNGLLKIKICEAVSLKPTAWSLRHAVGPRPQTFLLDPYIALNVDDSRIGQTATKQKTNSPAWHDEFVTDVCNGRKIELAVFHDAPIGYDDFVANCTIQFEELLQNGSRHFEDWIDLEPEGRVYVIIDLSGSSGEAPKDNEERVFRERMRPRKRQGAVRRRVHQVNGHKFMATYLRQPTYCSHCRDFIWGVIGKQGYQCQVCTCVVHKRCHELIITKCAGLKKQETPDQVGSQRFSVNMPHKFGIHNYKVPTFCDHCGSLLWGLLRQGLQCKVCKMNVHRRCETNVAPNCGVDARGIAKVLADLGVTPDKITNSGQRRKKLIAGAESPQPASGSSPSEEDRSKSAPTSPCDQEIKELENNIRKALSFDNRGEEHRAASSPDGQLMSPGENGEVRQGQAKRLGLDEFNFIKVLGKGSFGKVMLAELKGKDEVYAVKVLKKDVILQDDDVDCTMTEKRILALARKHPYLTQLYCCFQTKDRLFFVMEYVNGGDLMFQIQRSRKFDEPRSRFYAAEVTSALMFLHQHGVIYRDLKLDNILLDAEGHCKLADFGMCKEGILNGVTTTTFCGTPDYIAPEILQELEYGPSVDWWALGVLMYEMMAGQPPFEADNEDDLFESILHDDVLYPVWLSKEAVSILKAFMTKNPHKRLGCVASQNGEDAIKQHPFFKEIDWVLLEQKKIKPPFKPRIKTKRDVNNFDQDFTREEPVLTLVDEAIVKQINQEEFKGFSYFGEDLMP
Description: (§2) Protein Kinase C Assay. Rat hippocampal cells were cultured and scraped in 0.2 ml homogenization buffer (20 mM Tris-HCl, pH 7.4, 50 mM NaF, 1 μg/ml leupeptin, and 0.1 mM PMSF) and homogenized by sonication in a Marsonix micro-probe sonicator (5 sec, 10 W). To measure PKC, 10 μl of cell homogenate or purified PKC isozyme (purchased from Calbiochem) was incubated for 15 min at 37° C. in the presence of 10 μM histones, 4.89 mM CaCl2, 1.2 μg/μl phosphatidyl-L-serine, 0.18 μg/μl 1,2-dioctanoyl-sn-glycerol, 10 mM MgCl2, 20 mM HEPES (pH 7.4), 0.8 mM EDTA, 4 mM EGTA, 4% glycerol, 8 μg/ml aprotinin, 8 μg/ml leupeptin, and 2 mM benzamidine. 0.5 μCi [γ-32P]ATP was added and 32P-phosphoprotein formation was measured by adsorption onto phosphocellulose as described previously. Nelson and Alkon, J. Neurochemistry. 1995; 65: 2350-57. For measurements of activation by BR-101 (DCP-LA) and similar compounds, PKC activity was measured in the absence of diacylglycerol and phosphatidylserine, as described by Kanno et al., and PKC δ, ε, η, and were measured in the absence of added EGTA and CaCl2, as described by Kanno et al., J. Lipid Res. 2006; 47: 1146-50. Low concentrations of Ca2+ are used because high Ca2+ interacts with the PKC phosphatidylserine binding site and prevents activation. For measurements of bryostatin activation, 1,2-diacylglycerol was omitted unless otherwise stated.
To determine their PKC isozyme specificity, the new compounds were preincubated with purified PKC for five minutes and the PKC activity was measured radiometrically.

Aß [3] = test: Degradation of exogenous monomeric Aβ-42 in SH-SY5Y cells; type: cell-based, human; conditions: 0.01 to 10 μM; 100 nM exogenous monomeric Aβ-42; 24 h
Description: as §1
To determine whether the reduced levels of Aß caused by PKC activators were due to inhibition of Aß synthesis or activation of Aß degradation, we applied BR-111 (DHA-CP6) (0.01 to 10 μM) and low concentrations (100 nM) of exogenous monomeric Aβ-42 to cultured SH-SY5Y cells. This concentration of Aß is too low to produce measurable toxicity or cell death. Since SH-SY5Y cells produce only trace amounts of Aβ, this experiment was an effective test of the ability of PKC activators to enhance Aß degradation. By 24 h, most of the Aß had been taken up by the cells and the concentration of Aß in the culture medium was undetectable.

[4] = test system: Endothelin-converting enzyme (ECE); test: ECE assay in neuroblastoma cells (fluorimetric, McaBK2); type: cell-based, human; conditions: bryostatin 0.27 nM, BR-101 1 μM, BR-111 1
Description: ECE Assay. SH-5757 neuroblastoma cells were incubated with bryostatin (0.27 nM), BR-101 (DCP-LA) (1 μM), and BR-111 (DHA-CP6) (1 Endothelin-converting enzyme (ECE) was measured fluorimetrically using the method of Johnson and Ahn, Anal. Biochem. 2000; 286: 112-118. A sample of cell homogenate (20 μl) was incubated in 50 mM MES-KOH, pH 6.0, 0.01% C 12E10 (polyoxyethylene-10-lauryl ether), and 15 μM McaBK2 (7-Methoxycoumarin-4-acetyl [Ala7-(2,4-Dinitrophenyl)Lys9]-bradykinin trifluoroacetate salt) (Sigma-Aldrich). After 60 min at 37° C., the reaction was quenched by adding trifluoroacetic acid to 0.5%. The sample was diluted to 1.4 ml with water and the fluorescence was measured at ex=334 nm, em=398 nm.

PKC [5] = test: PKC in perforated fibers of AD transgenic mice (FIG. 8); type: in vivo
α-secretase = conditions: human fibroblasts, cited from earlier work
PKC [6] = test: PKC activity in cultured rat hippocampal H19-7/IGF-IR cells; type: cell-based
Description: Cell Culture. Rat hippocampal H19-7/IGF-IR cells (ATCC, Manassas, Va.) were plated onto poly-L-lysine coated plates and grown at 35° C. in DMEM/10% FCS for several days until about 50% coverage was obtained. The cells were then induced to differentiate into a neuronal phenotype by replacing the medium with 5 ml N2 medium containing 10 ng/ml basic fibroblast growth factor at 39° C. and grown in T-75 flasks at 37° C. Human SH-SY5Y neuroblastoma cells (ATCC) were cultured in 45% F 12K/45% MEM/10% FCS. Mouse N2A neuroblastoma cells were cultured in DMEM/10% FCS without glutamine. Rat hippocampal neurons from 18-day-old embryonic
as §2
PKC activators that bind to the diacylglycerol binding site, including bryostatin, gnidimacrin, and phorbol esters, produce a transient activation of PKC activity, followed by a prolonged downregulation. Nelson et al., Trends in Biochem. Sci. 2009; 34: 136-45. This was confirmed in cultured rat hippocampal cells. Incubation of rat 1119-7/IGF-IR cells with (0.04 nM and 0.2 nM) bryostatin produced a 2-fold activation that lasted 30 min, followed by a 20% downregulation that returned to baseline by 24 h (data not shown). […] This sustained activation was only observed in primary neurons.

rats = conditions: cited from earlier work

SMILES	effect on cell survival or proliferation [1]	change in TACE activity (TACE)	levels of both intracellular and secreted Aß (Aß [2])	concentration dependence of Aß inhibition (Aß [2]; concentrations up to 10 to 100 μM, no evidence of downregulation at higher concentrations)	concentration needed to activate PKC, relative to BR-101 (DCP-LA) (purified PKC; compared with BR-101 (DCP-LA))	activation of purified PKC (purified PKC; used as methyl esters)	reduction of cellular levels of Aß (Aß [3])	change in ECE activity [4]	loss of PKC in perforated fibers (PKC [5])	increase of initial rate of α-secretase activity (α-secretase; 10 μM)	increase of initial rate of α-secretase activity (α-secretase; 100 μM)	downregulation of PKC following activation (PKC [6]; 0.04 nM and 0.2 nM)	time of return of PKC to baseline (PKC [6]; 0.04 nM and 0.2 nM)	activation of PKC activity (PKC [6]; 0.04 nM and 0.2 nM, data not shown)	downregulation of PKC activity (PKC [6]; 8 h, data not shown)	rate of learning (rats)
CCC1CC1CC1CC1CC1CC1CC1CC1CC1CC1CC1CC1CCC(=O)OC (stereo not shown) [BR-111, methyl-3-(2-((2-((2-((2-((2-((2-ethylcyclopropyl)methyl)cyclopropyl)methyl)cyclopropyl)methyl)-cyclopropyl)methyl)cyclopropyl)methyl)cyclopropyl)propanoate]	no effect	only produced small increases	markedly reduced	monotonically increasing inhibition	approx. 100 times lower	activated purified PKC to a similar extent	45-63%	sustained increase								
CCC/C=C/C=C/C(=O)O[C@H]1/C(=C/C(=O)OC)C[C@H]2C[C@H]([C@@H](C)O)OC(=O)C[C@H](O)C[C@@H]3C[C@H](OC(C)=O)C(C)(C)[C@](O)(C[C@@H]4C/C(=C/C(=O)OC)C[C@H](/C=C/C(C)(C)[C@]1(O)O2)O4)O3 [bryostatin]		only produced small increases	markedly reduced					sustained increase	prevents the loss of PKC in perforated fibers	16 fold	132 fold	20%	≤ 24 h	2 fold	at or near the baseline	dramatically increase

From patent US20230235378A1, “LZHEIMER'S DISEASE-SPECIFIC ALTERATIONS OF PROTEIN KINASE C EPSILON (PKC-EPSILON PROTEIN LEVELS” (WEST VIRGINIA UNIVERSITY BOARD OF GOVERNORS ON BEHALF OF …, priority 2010, published 2023)
